Data set [1] is described as follows: Comparison with prior art formulations: dissolved kinetin or zeatin in GDM-12, Transcutol, isostearic acid and mixtures by HPLC. The note with it: for Synergistic Increase in Solubility %: zeatin. The protocol:
Kinetin was combined and mixed in separate beakers containing GDM-12, Transcutol, and Isostearic Acid, and the concentration of dissolved kinetin in each beaker was determined by HPLC. Kinetin was then combined and mixed in separate beakers containing GDM-12 and Transcutol (1:1) and containing GDM-12 and Isostearic acid.
Zeatin was combined and mixed in separate beakers containing GDM-12, Transcutol, and Isostearic Acid, and the concentration of dissolved zeatin in each beaker was determined by HPLC. Zeatin was then combined and mixed in separate beakers containing GDM-12 and Transcutol (1:1) and containing GDM-12 and Isostearic acid.

For data set [2] the following is noted: distilled water / water; cited from earlier work.
Data set [3] can be described thus: Solubility of kinetin or zeatin alone in GDM-12, GDO-12, isostearic acid and 50:50 mixtures, determined by HPLC. As to conditions: for calculated solubility: based on independent solubility in each solvent. The procedure:
(§1) Solubilization of kinetin and zeatin was determined by HPLC.

The nature of data set [4]: Solubility of kinetin or zeatin when both kinetin and zeatin are dissolved, determined by HPLC. The protocol:
as §1

Where [5] appears, read: solvent GDM-12 + Isostearic Acid.
[6] abbreviates: solvent GDM-12 + Transcutol (1:1).
Where [7] appears, read: 50% GDM-12 and 50% isostearic acid.
The mark [8] stands for this setting: 50% GDO-12 and 50% isostearic acid.

These results are taken from US10166235B2, “Kinetin/zeatin topical formulation” (Dow Pharmaceutical Sciences, Inc., priority 2013, dated 2019).

As for `c1coc(CNc2ncnc3nc[nH]c23)c1` [Kinetin, N^6-furfuryladenine], the “Kinetin % w/w Experimental” value in data set [1] (solvent GDM-12) is on record as “.164 % w/w”; in data set [1] (setting [5]), “.422 % w/w”; in data set [1] (setting [6]), “.287 % w/w”; in data set [1] (solvent Isostearic Acid) it was “.299 % w/w”; in data set [1] (solvent Transcutol) it was “.397 % w/w”. The “Kinetin % w/w Calculated” value in data set [1] (setting [5]) is reported as “.229 % w/w”; in data set [1] (setting [6]), “.281 % w/w”.
On to `C/C(=C\CNc1ncnc2nc[nH]c12)CO` [Zeatin, (E)-2-methyl-4-(7H-purin-6-ylamino)but-2-en-1-ol], for which the solubility in water result in data set [2] is listed as “practically insoluble”. Further, the “Zeatin % w/w Experimental” value in data set [1] (solvent GDM-12) was “.119 % w/w”; in data set [1] (setting [5]) it was “.440 % w/w”; in data set [1] (setting [6]), “.365 % w/w”; in data set [1] (solvent Isostearic Acid), “.299 % w/w”; in data set [1] (solvent Transcutol) it was “.570 % w/w”. Further, the “Zeatin % w/w Calculated” value is listed as “.229 % w/w” in data set [1] (setting [5]) and “.345 % w/w” in data set [1] (setting [6]). For the same compound, the “Synergistic Increase in Solubility %” value in data set [1] (setting [5]) is 92%; in data set [1] (solvent GDM-12 + Isostearic Acid, listed as zeatin), 92%; in data set [1] (setting [6]), 0%; in data set [1] (solvent GDM-12 + Transcutol (1:1), listed as zeatin), “does not provide a synergistic increase”. In addition, the “increase over the calculated solubility” value in data set [3] (setting [7]) is 109%; in data set [3] (setting [8]), 100%; in data set [4] (both kinetin and zeatin dissolved, 50% GDM-12 and 50% isostearic acid) it was 121%. For the same compound, the calculated solubility is recorded as 0.21 wt % in data set [3] (setting [7]); 0.20 wt % in data set [3] (setting [8]); 0.19 wt % in data set [4] (both kinetin and zeatin combined, 50% GDM-12 and 50% isostearic acid). Moreover, the solubility is 0.44 % w/w in data set [3] (in 50% GDM-12 and 50% isostearic acid); 0.40 % w/w in data set [3] (in 50% GDO-12 and 50% isostearic acid); 0.12 % w/w in data set [3] (in 100% GDM-12 (PEG-12 Glycerol dimyristate)); 0.10 % w/w in data set [3] (in 100% GDO-12 (PEG-12 Glycerol dioleate)); 0.30 % w/w in data set [3] (in 100% isostearic acid); 0.42 % w/w in data set [4] (both kinetin and zeatin dissolved, in 50% GDM-12 and 50% isostearic acid). The solubility was 0.10 % w/w in data set [4] (both kinetin and zeatin dissolved, in 100% GDM-12); 0.28 % w/w in data set [4] (both kinetin and zeatin dissolved, in 100% isostearic acid).
